Experimental data reported in patent US9458220B2 (priority 2010, dated 2016).
Read-outs that look alike come from different tables or passages of the source. Primed or numbered codes have the meaning given here. Where no end group is shown, it is not given here. [ ]: non-standard residue; d: D form. PEG8′ = non-peptide PEG linker of 8 ethylene glycol units

Experiments:
[1] = molecular target: T1, human insulin receptor (Homo sapiens, UniProt P06213); assay: Insulin receptor competition binding assay (scintillation proximity)
T1 construct: expressed in transfected cells; plasma membrane fragments

[2] = molecular target: T2, human IGF-1 receptor (Homo sapiens, UniProt P08069); assay: IGF-1 receptor competition binding assay (scintillation proximity); settings: Table 9
T2 construct: expressed in transfected cells; plasma membrane fragments

[3] = molecular target: IR-B (Homo sapiens, UniProt P06213); assay: In vitro activity at IR-B relative to native insulin; assay type: cell-based; settings: for % Insulin Activity IR-B: Table 17
[4] = molecular target: IR-A (Homo sapiens, UniProt P06213); assay: In vitro activity at IR-A relative to native insulin; assay type: cell-based
[5] = molecular target: IGF-1 R (Homo sapiens, UniProt P08069); assay: In vitro activity at IGF-1 R relative to native insulin; assay type: cell-based; settings: for % Insulin Activity IGF-1 R: Table 17
[6] = tested on: mice; assay: Comparative insulin tolerance test in mice; assay type: in vivo; settings: result in words
Experimental: The activity of the compounds in vivo was also tested by administering the compounds to mice. Food was removed four hours prior to administering peptide to normal mice and withheld for the duration of the study. Glucose was measured just prior to administration of test compounds and at 1, 2, 3, 6 and 8, 12, 16, 20 and 24 hours after administration. […] FIGS. 29B and 29C provide data on blood glucose concentrations over 8 hours after administration of the listed analogs.
The compounds were tested at two different concentrations (27 nmol/kg and 90nmol/kg).
This single chain analog comprises a 20 kDa PEG linked to the side chain of the single lysine residue in the linking moiety (PEG8-K-PEG4) that joins the A chain and the B chain. […] FIGS. 33C and 33D show the blood glucose AUC24 hrs in mice administered Detemir and MIU-56, respectively.

CC[C@H](C)[C@H](NC(=O)CN)C(=O)N[C@H](C(=O)N[C@@H](CC(=O)O)C(=O)N[C@@H](CCC(=O)O)C(=O)N[C@H]1CSSC[C@@H]2NC(=O)[C@H](CO)NC(=O)[C@H](CCCNC(=N)N)NC(=O)[C@H](Cc3ccccc3)NC(=O)[C@H](CSSC[C@H](NC(=O)[C@H](CC(C)C)NC(=O)[C@@H](NC(=O)[C@H](CCC(=O)O)NC(=O)[C@@H]3CCCN3C(=O)CN)[C@@H](C)O)C(=O)NCC(=O)N[C@@H](CO)C(=O)N[C@@H](Cc3c[nH]cn3)C(=O)N[C@@H](CC(C)C)C(=O)N[C@@H](C(C)C)C(=O)N[C@@H](CCC(=O)O)C(=O)N[C@@H](C)C(=O)N[C@@H](CC(C)C)C(=O)N[C@@H](Cc3ccc(O)cc3)C(=O)N[C@@H](CC(C)C)C(=O)N[C@@H](C(C)C)C(=O)N[C@H](C(=O)NCC(=O)N[C@@H](CC(=O)O)C(=O)N[C@@H](CCCNC(=N)N)C(=O)NCC(=O)N[C@@H](Cc3ccccc3)C(=O)N[C@@H](Cc3ccc(O)cc3)C(=O)N[C@@H](Cc3ccccc3)C(=O)N[C@@H](CC(N)=O)C(=O)N[C@@H](CCCCN)C(=O)N3CCC[C@H]3C(=O)N[C@H](C(N)=O)[C@@H](C)O)CSSC[C@@H](C(=O)N[C@@H](C)C(N)=O)NC(=O)[C@H](Cc3ccc(O)cc3)NC(=O)[C@H](CCSC)NC(=O)[C@H](CCC(=O)O)NC(=O)[C@H](CC(C)C)NC(=O)[C@H](CCCNC(=N)N)NC(=O)[C@H](CCCNC(=N)N)NC(=O)[C@H](CC(C)C)NC(=O)[C@H](CC(=O)O)NC2=O)NC1=O)C(C)C
Insulin Receptor % insulin (in test) ([1]; Table 9): 19.1%
Insulin Receptor % native insulin activity (0.6 nM) ([1]; Table 9): 37.7%
Ratio ([1]; Table 9, IGF-1 receptor IC50 over insulin receptor IC50): 22.6
IGF-1 Receptor % IGF-1 (in test) [2]: 0.3%

CC[C@H](C)[C@H](NC(=O)CNC(=O)[C@@H]1CCCN1C(=O)[C@H](C)N)C(=O)N[C@H](C(=O)N[C@@H](CC(=O)O)C(=O)N[C@@H](CCC(=O)O)C(=O)N[C@H]1CSSC[C@@H]2NC(=O)[C@H](CO)NC(=O)[C@H](CCCNC(=N)N)NC(=O)[C@H](Cc3ccccc3)NC(=O)[C@H](CSSC[C@H](NC(=O)[C@H](CC(C)C)NC(=O)[C@@H](NC(=O)[C@H](CCC(=O)O)NC(=O)[C@@H]3CCCN3C(=O)CN)[C@@H](C)O)C(=O)NCC(=O)N[C@@H](C)C(=O)N[C@@H](CCC(=O)O)C(=O)N[C@@H](CC(C)C)C(=O)N[C@@H](C(C)C)C(=O)N[C@@H](CC(=O)O)C(=O)N[C@@H](C)C(=O)N[C@@H](CC(C)C)C(=O)N[C@@H](Cc3ccc(O)cc3)C(=O)N[C@@H](CC(C)C)C(=O)N[C@@H](C(C)C)C(=O)N[C@H](C(=O)NCC(=O)N[C@@H](CC(=O)O)C(=O)N[C@@H](CCCNC(=N)N)C(=O)NCC(=O)N[C@@H](Cc3ccccc3)C(=O)N[C@@H](Cc3ccc(O)cc3)C(=O)N[C@@H](Cc3ccccc3)C(=O)N[C@@H](CC(N)=O)C(=O)N[C@@H](CCCCN)C(=O)N3CCC[C@H]3C(=O)N[C@H](C(N)=O)[C@@H](C)O)CSSC[C@@H](C(=O)N[C@@H](C)C(N)=O)NC(=O)[C@H](Cc3ccc(O)cc3)NC(=O)[C@H](CCSC)NC(=O)[C@H](CCC(=O)O)NC(=O)[C@H](CC(C)C)NC(=O)[C@H](CCCNC(=N)N)NC(=O)[C@H](CCCNC(=N)N)NC(=O)[C@H](CC(C)C)NC(=O)[C@H](CC(=O)O)NC2=O)NC1=O)C(C)C [IGF1(Y^B16L^B17)(AlaPro)^A-1, 0]
% of Insulin Activity ([1]; Table 8): 37.12%

B1, A14-10K B^1(H5, 10Y16L17R29)29: A^1(H8K14N18, 21) (chain 1 GPEHLCGAHLVDALYLVCGDRGFYFNKR; chain 2 GIVDECCHRSCDLKRLENYCN) [di-10K-TC]
IR-B ([3]; Table 19): 2.1%
IR-A ([4]; Table 19): 6.4%

B1, A14-10K B^1(H5, 10Y16L17R29)30-C^1des9-12-A^1(H8, K14, N18, 21) (GPEHLCGAHLVDALYLVCGDRGFYFNKRTGYGSSSRRGIVDECCHRSCDLKRLENYCN) [MIU-79]
IR-B ([3]; Table 19): 0.2%
IR-A ([4]; Table 19): 1.7%

B1-20K B^1(H5, 10Y16L17K29)29-A^1(H8N18, 21) [MIU-77]
IR-A [4]: 0.1%
activity at the insulin type-A receptor on addition of a 20 kDa PEG [4]: ~100 fold

B1-20K B^1(H5, 10Y16L17K29)29: A^1(H8N18, 21) [MIU-78]
IR-B [3]: 3.2%
IR-A [4]: 8.2%

B^1(A5H10Y16L17)25-C^1-A^1(H8N18N21) [Ala, B5]
IR-B ([3]; Table 18): 5.7%
IGF-1 R ([5]; Table 18): 2.5%

B^1(C16-K0,H5,H10,Y16,L17)25a: A^1(N18,N21) [MIU-36]
ability to reduce and sustain low blood glucose [6]: more basal and sustained lowered glucose levels relative to native insulin

B^1(H5, 10Y16L17)25-C^1-A^1(T8N18, 21) (GPEHLCGAHLVDALYLVCGDRGFYGYGSSSRRAPQTGIVDECCTRSCDLRRLENYCN) [Thr, A8]
IR-B ([3]; Table 18): 8.4%
IR-A ([4]; Table 18): 20.4%
IGF-1 R ([5]; Table 18): 3.7%

B^1(H5, 10Y16L17A24)25-C^1-A^1(H8N18, N21) [Ala, B24]
IR-B [3]: 0.4%
IR-A [4]: 0.1%
IGF-1 R [5]: 0.3%

B^1(H5, 10Y16L17K29)29-A^1(H8, N18, 21) [DP3(SC)]
IR-A ([4]; Table 19): 0.03%

B^1(H5, 10Y16L17K29)29: A^1(H8, N18, 21) [DP3(TC)]
IR-B ([3]; Table 19): 33.1%
IR-A ([4]; Table 19): 159.8%

B^1(H5, 10Y16L17R29)30-C^1des9-12-A^1(H8, K14, N18, 21) (GPEHLCGAHLVDALYLVCGDRGFYFNKRTGYGSSSRRGIVDECCHRSCDLKRLENYCN) [DP8Mut3KA14]
IR-B ([3]; Table 19): 12.6%
IR-A ([4]; Table 19): 132.2%

B^1(H5, 10Y16L17R29)30-C^1des9-12-A^1(H8, N18, 21) (GPEHLCGAHLVDALYLVCGDRGFYFNKRTGYGSSSRRGIVDECCHRSCDLRRLENYCN) [MIU-43]
IR-B ([3]; Table 19): 16.7%
IR-A ([4]; Table 19): 97.5%
IGF-1 R ([5]; Table 19): 14.2%

B^1(H5,H10,Y16,L17)25-C^1-A^1(H8,N18,N21) (GPEHLCGAHLVDALYLVCGDRGFYGYGSSSRRAPQTGIVDECCHRSCDLRRLENYCN) [MIU-35]
IR-B ([3]; Table 18): 17.4%
IR-A ([4]; Table 18): 61.4%
% Insulin Activity IGF-1 R [5]: 3.2%
IGF-1 R ([5]; Table 18): 3.2%

B^1(H5,H10,Y16,L17)25a: A^1(H8,rEC16-K14,N18,N21) [MIU-41]
ability to reduce and sustain low blood glucose [6]: more basal and sustained lowered glucose levels relative to native insulin

B^1(H5,H10,Y16,L17,C16rE-K22)25a: A^1(N18,N21) [MIU-37]
ability to reduce and sustain low blood glucose [6]: more basal and sustained lowered glucose levels relative to native insulin

B^1(H5,Y16,L17)25-C^1(K8)-A^1(K14, N18,21) (GPEHLCGAELVDALYLVCGDRGFYGYGSSSRKAPQTGIVDECCFRSCDLKRLENYCN) [MIU-69, two 10K PEG chains, at the N-terminus and at amino acid A14]
% Insulin Activity IGF-1 R [5]: <0.1%

B^1(H5,Y16,L17)25-C^1(K8)-A^1(N18,21) (GPEHLCGAELVDALYLVCGDRGFYGYGSSSRKAPQTGIVDECCFRSCDLRRLENYCN) [MIU-67, two 10K PEG chains, at the N-terminus and at position C8]
% Insulin Activity IR-B [3]: 0.1%
% Insulin Activity IGF-1 R [5]: <0.1%
ability to reduce and sustain low blood glucose [6]: roughly equivalent to MIU-59 administered at 40 nmol/kg

B^1(H5,Y16,L17, K22)25-C^1(K8)-A^1(N18,21) (GPEHLCGAELVDALYLVCGDKGFYGYGSSSRKAPQTGIVDECCFRSCDLRRLENYCN) [MIU-68, two 10K PEG chains, at the N-terminus and at amino acid B22]
% Insulin Activity IR-B [3]: 0.1%
% Insulin Activity IGF-1 R [5]: <0.1%

C8-PEG20K B^1(H5, Y16, L17)25-PEG8-K-PEG4-A^1(N18, N21) (GPEHLCGAELVDALYLVCGDRGFY[PEG8′]KGIVDECCFRSCDLRRLENYCN; not fully specified (some residues, bridges); ends and bridges not checked) [MIU-56]
ability to reduce and sustain low blood glucose [6]: sustained duration of action for 24 hours

GE5W-B^1(A5H10Y16L17)25-C^1-A^1(H8N18N21) [GE5W-Ala, B5]
IR-B ([3]; Table 18): 2.3%
IR-A ([4]; Table 18): 8.6%
IGF-1 R ([5]; Table 18): 0.3%

B1: GE5W-B^1(H5, 10Y16L17)25-C^1-A^1(A1H8N18, 21) (peptide)
chain: GEEEEEWGPEHLCGAHLVDALYLVCGDRGFYGYGSSSRRAPQTAIVDECCHRSCDLRRLENYCN
IR-B ([3]; Table 18): 0.7%
IR-A ([4]; Table 18): 2.1%
IGF-1 R ([5]; Table 18): 0.5%
